# In ChEMBL document CHEMBL1131216, “Anhydrolide macrolides. 2. Synthesis and antibacterial activity of 2,3-anhydro-6-O-methyl 11,12-carbazate erythromycin A analogues” (1998):
# Tests used:
# Format in all cases: functional
# Staphylococcus aureus [1] = assay: In vitro antibacterial activity of A5177 strain of Gram positive bacteria Staphylococcus aureus
# Streptococcus pyogenes [2] = assay: In vitro antibacterial activity of PIU2584 strain of Gram positive bacteria Streptococcus pyogenes
# Staphylococcus aureus [3] = assay: In vitro antibacterial activity of 6538P strain of Gram positive bacteria Staphylococcus aureus
# Streptococcus pyogenes [4] = assay: In vitro antibacterial activity of 930 strain of Gram positive bacteria Streptococcus pyogenes
# Streptococcus pneumoniae [5] = assay: In vitro antibacterial activity of ATCC 6303 strain of Gram positive bacteria Streptococcus pneumoniae
# Haemophilus influenzae = assay: In vitro antibacterial activity of DILL strain of Gram negative bacteria Haemophilus influenzae
# Streptococcus pyogenes [6] = assay: In vitro antibacterial activity of EES61 strain of Gram positive bacteria Streptococcus pyogenes
# Streptococcus pneumoniae [7] = assay: In vitro antibacterial activity of 5979 strain of Gram positive bacteria Streptococcus pneumoniae
# Staphylococcus aureus [8] = assay: In vitro antibacterial activity of A-5278 strain of Gram positive bacteria Staphylococcus aureus
# Streptococcus pneumoniae [9] = assay: In vitro antibacterial activity of 5649 strain of Gram positive bacteria Streptococcus pneumoniae
SMILES,MIC (Staphylococcus aureus [1]) [µg/mL],MIC (Streptococcus pyogenes [2]) [µg/mL],MIC (Staphylococcus aureus [3]) [µg/mL],MIC (Streptococcus pyogenes [4]) [µg/mL],MIC (Streptococcus pneumoniae [5]) [µg/mL],MIC (Haemophilus influenzae) [µg/mL],MIC (Streptococcus pyogenes [6]) [µg/mL],MIC (Streptococcus pneumoniae [7]) [µg/mL],MIC (Staphylococcus aureus [8]) [µg/mL],MIC (Streptococcus pneumoniae [9]) [µg/mL]
CC[C@H]1OC(=O)/C(C)=C/[C@H](C)[C@@H](O[C@@H]2O[C@H](C)C[C@H](N(C)C)[C@H]2O)[C@@](C)(OC)C[C@@H](C)C(=O)[C@H](C)[C@H]2N(NCCCc3ccc(O)cc3)C(=O)O[C@]12C,0.1,0.25,0.2,> 64,0.004,4,0.004,> 64,> 100,1
CC[C@H]1OC(=O)/C(C)=C/[C@H](C)[C@@H](O[C@@H]2O[C@H](C)C[C@H](N(C)C)[C@H]2O)[C@@](C)(OC)C[C@@H](C)C(=O)[C@H](C)[C@H]2N(NCCCn3nnc4ccccc43)C(=O)O[C@]12C,0.1,1,0.2,> 128,0.03,4,0.03,> 128,> 100,1
CC[C@H]1OC(=O)/C(C)=C/[C@H](C)[C@@H](O[C@@H]2O[C@H](C)C[C@H](N(C)C)[C@H]2O)[C@@](C)(OC)C[C@@H](C)C(=O)[C@H](C)[C@H]2N(NCCCc3ccc(Cl)cc3Cl)C(=O)O[C@]12C,0.39,1,0.39,8,0.125,16,0.06,8,25,2
CC[C@H]1OC(=O)/C(C)=C/[C@H](C)[C@@H](O[C@@H]2O[C@H](C)C[C@H](N(C)C)[C@H]2O)[C@@](C)(OC)C[C@@H](C)C(=O)[C@H](C)[C@H]2N(NCc3ccc(NC(C)=O)cc3)C(=O)O[C@]12C,0.78,2,0.78,> 64,0.125,4,0.03,> 64,> 100,1
CC[C@H]1OC(=O)/C(C)=C/[C@H](C)[C@@H](O[C@@H]2O[C@H](C)C[C@H](N(C)C)[C@H]2O)[C@@](C)(OC)C[C@@H](C)C(=O)[C@H](C)[C@H]2N(NC/C=C/c3cccc4ccccc34)C(=O)O[C@]12C,0.39,1,0.39,8,0.125,16,0.125,16,25,1
CC[C@H]1OC(=O)/C(C)=C/[C@H](C)[C@@H](O[C@@H]2O[C@H](C)C[C@H](N(C)C)[C@H]2O)[C@@](C)(OC)C[C@@H](C)C(=O)[C@H](C)[C@H]2N(NC/C=C/c3ccccc3)C(=O)O[C@]12C,0.1,0.5,0.02,32,0.03,8,0.06,32,100,1
CC[C@H]1OC(=O)/C(C)=C/[C@H](C)[C@@H](O[C@@H]2O[C@H](C)C[C@H](N(C)C)[C@H]2O)[C@@](C)(OC)C[C@@H](C)C(=O)[C@H](C)[C@H]2N(NC/C=C/c3ccc([N+](=O)[O-])o3)C(=O)O[C@]12C,0.01,0.25,0.02,64,0.03,2,0.004,> 128,> 100,0.5
CC[C@H]1OC(=O)/C(C)=C/[C@H](C)[C@@H](O[C@@H]2O[C@H](C)C[C@H](N(C)C)[C@H]2O)[C@@](C)(OC)C[C@@H](C)C(=O)[C@H](C)[C@H]2N(NCc3ccc(N)cc3)C(=O)O[C@]12C,0.78,1,0.78,> 128,0.25,16,0.06,> 128,> 100,1
CC[C@H]1OC(=O)/C(C)=C/[C@H](C)[C@@H](O[C@@H]2O[C@H](C)C[C@H](N(C)C)[C@H]2O)[C@@](C)(OC)C[C@@H](C)C(=O)[C@H](C)[C@H]2N(NCc3ccc(O)cc3)C(=O)O[C@]12C,0.2,1,0.2,> 128,0.03,4,0.03,> 128,> 100,1
CC[C@H]1OC(=O)/C(C)=C/[C@H](C)[C@@H](O[C@@H]2O[C@H](C)C[C@H](N(C)C)[C@H]2O)[C@@](C)(OC)C[C@@H](C)C(=O)[C@H](C)[C@H]2N(NCCCc3cccc([N+](=O)[O-])c3)C(=O)O[C@]12C,0.2,0.25,0.2,64,0.004,8,0.004,128,> 100,0.25
CC[C@H]1OC(=O)/C(C)=C/[C@H](C)[C@@H](O[C@@H]2O[C@H](C)C[C@H](N(C)C)[C@H]2O)[C@@](C)(OC)C[C@@H](C)C(=O)[C@H](C)[C@H]2N(NCc3cccnc3)C(=O)O[C@]12C,0.39,1,0.39,> 64,0.06,8,0.03,> 64,> 100,1
CC[C@H]1OC(=O)/C(C)=C/[C@H](C)[C@@H](O[C@@H]2O[C@H](C)C[C@H](N(C)C)[C@H]2O)[C@@](C)(OC)C[C@@H](C)C(=O)[C@H](C)[C@H]2N(NCCc3ccc(Oc4ccccc4)cc3)C(=O)O[C@]12C,1.56,2,1.56,8,0.25,> 64,0.25,16,25,2
CC[C@H]1OC(=O)/C(C)=C/[C@H](C)[C@@H](O[C@@H]2O[C@H](C)C[C@H](N(C)C)[C@H]2O)[C@@](C)(OC)C[C@@H](C)C(=O)[C@H](C)[C@H]2N(NCc3c[nH]c4ccccc34)C(=O)O[C@]12C,0.39,0.5,0.39,> 64,0.125,8,0.06,> 64,> 100,1
CC[C@H]1OC(=O)C(C)C(=O)[C@H](C)[C@@H](O[C@@H]2O[C@H](C)C[C@H](N(C)C)[C@H]2O)[C@@](C)(OC)C[C@@H](C)C(=O)[C@H](C)[C@H]2N(NCCCc3ccnc4ccccc34)C(=O)O[C@]12C (stereo not given in full),0.05,0.25,0.1,2,0.004,1,0.008,8,> 100,0.5
CC[C@H]1OC(=O)/C(C)=C/[C@H](C)[C@@H](O[C@@H]2O[C@H](C)C[C@H](N(C)C)[C@H]2O)[C@@](C)(OC)C[C@@H](C)C(=O)[C@H](C)[C@H]2N(NC/C=C/c3ccc(NC(C)=O)cc3)C(=O)O[C@]12C,0.2,1,0.2,> 64,0.03,4,0.06,> 64,> 100,1
